Data taken from patent publication US7365067B2, “Indanol derivative” (Sankyo Company, Limited, priority 2004, dated 2008).

Biological target: T1, NK2 receptor (Cavia porcellus, UniProt Q64077)
T1 construct: in normal guinea pigs (body weights: about 500 g, Hartley male guinea pigs); from tissue; host or cells: airways of live Hartley male guinea pigs (in vivo)
T1 sequence (Q64077 1-402): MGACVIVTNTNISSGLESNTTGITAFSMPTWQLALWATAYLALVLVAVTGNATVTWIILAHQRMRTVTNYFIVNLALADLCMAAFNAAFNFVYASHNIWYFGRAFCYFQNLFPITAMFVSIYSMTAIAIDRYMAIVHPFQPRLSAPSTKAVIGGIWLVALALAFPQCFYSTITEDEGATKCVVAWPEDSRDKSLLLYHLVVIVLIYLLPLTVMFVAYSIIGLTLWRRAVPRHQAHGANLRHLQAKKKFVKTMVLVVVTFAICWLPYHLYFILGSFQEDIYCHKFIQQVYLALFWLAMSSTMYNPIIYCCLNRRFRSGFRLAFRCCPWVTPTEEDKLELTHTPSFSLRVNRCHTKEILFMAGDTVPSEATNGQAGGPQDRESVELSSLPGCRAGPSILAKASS
Experiment: Inhibitory Action on Airway Contraction (In Vivo, Transtracheal Administration), induced by neurokinin A (NKA)
Design: species or system guinea pig
Details: Hartley male guinea pigs; 10 μg/kg transtracheal; NKA 4 μg/kg i.v. administered 16 hours after test substance; relative to 5% glucose control group
From the text: Inhibitory Action on Airway Contraction (In Vivo, Transtracheal Administration)
The inhibitory action on airway contraction by the NK2 receptor agonist, neurokinin A (NKA) was investigated using airway internal pressure as an indicator in normal guinea pigs (body weights: about 500 g, Hartley male guinea pigs) using a variation of the method of Konzett-Roessler (Naunyn-Schmiedebergs Arch. Exp. Pathol. Pharmakol. 195, 71 (1940)).
A tracheal cannula and venous cannula were implanted in the guinea pigs under pentobarbital anesthesia (50 mg/mL of liquid, 0.40 to 0.50 mL/body, s.c.). In addition, an arterial cannula filled with heparin-containing physiological saline (100 U/mL) was implanted to monitor blood pressure and heart rate via an amplifier and instantaneous cardiograph. Next, after administering gallamine (20 mg/kg, i.v.) and interrupting spontaneous respiration, positive pressure ventilation (Ugo-Basile Biological Research Apparatus, Cat. No. 7025) was rapidly carried out at 10 mL/kg and 60 times/minute. The airway internal pressure during artificial respiration was detected with a pressure transducer (Nihon Koden, TP-200T or TP-400T) implanted in the lateral branch of the tracheal cannula, amplified (Nihon Koden, AP-601G) and recorded with a recorder (Nihon Koden, WT-645G or WT-685G). After the airway internal pressure, blood pressure and heart rate had stabilized, the standard tracheal contracting substance, methacholine was administered at 10 μg/kg (100 μg/mL, 0.10 mL/kg) to confirm airway response. In the case the prescribed contraction response was not obtained, methacholine was additionally administered at 12 μg/kg (120 μg/mL, 0.10 mL/kg) followed by confirmation of airway response. Five minutes after confirming airway response, NKA was administered intravenously through the intravenous cannula at 4 μg/kg to induce airway contraction followed by measuring airway internal pressure for the next 10 minutes.
The test substance was dissolved in 5% glucose, and a 0.5 mL/kg solution was administered into the airway using an intratracheal administration instrument (1A-1B, Penn-Century).
The surface value over which airway internal pressure had increased at 10 minutes after administration of NKA was taken to represent the strength of NKA-induced airway contraction, and the inhibition rate was calculated relative to a control group (5% glucose transtracheal dose group).

SMILES	Inhibition Rate (%) of NKA-induced airway contraction
Cl.O=C(CO[C@H]1Cc2ccccc2C12CCN(CC[C@@]1(c3ccc(Cl)c(Cl)c3)CN(C(=O)c3cc(C(F)(F)F)cc(C(F)(F)F)c3)CCO1)CC2)N1CCC(CCO)CC1 [Example 69, 2-(1-{[((2S)-1′-{2-[(2R)-4-[3,5-bis(Trifluoromethyl)benzoyl]-2-(3,4-dichlorophenyl)morpholin-2-yl]ethyl}-2,3-dihydrospiro[indene-1,4′-piperidin]-2-yl)oxy]acetyl}piperidin-4-yl)ethanol hydrochloride]	88%
CN(CCO)C(=O)CO[C@H]1Cc2ccccc2C12CCN(CC[C@@]1(c3ccc(Cl)c(Cl)c3)CN(C(=O)c3cc(C(F)(F)F)cc(C(F)(F)F)c3)CCO1)CC2.Cl [Example 32, 1-(2-{(2R)-2-(3,4-Dichlorophenyl)-4-[3,5-bis(trifluoromethyl)benzoyl]morpholin-2-yl}ethyl)spiro((2S)-2-{[N-(2-hydroxyethyl)-N-methylamino]-2-oxoethoxy})indane-1,4′-piperidine hydrochloride]	89%
Cl.O=C(CO[C@H]1Cc2ccccc2C12CCN(CC[C@@]1(c3ccc(Cl)c(Cl)c3)CN(C(=O)c3cc(C(F)(F)F)cc(C(F)(F)F)c3)CCO1)CC2)NCCO [Example 33, 1-(2-{(2R)-2-(3,4-Dichlorophenyl)-4-[3,5-bis(trifluoromethyl)benzoyl]morpholin-2-yl}ethyl)spiro((2S)-2-{2-[N-(2-hydroxyethyl)amino]-2-oxoethoxy})indane-1,4′-piperidine hydrochloride]	93%
CN(CCCO)C(=O)CO[C@H]1Cc2ccccc2C12CCN(CC[C@@]1(c3ccc(Cl)c(Cl)c3)CN(C(=O)c3cc(C(F)(F)F)cc(C(F)(F)F)c3)CCO1)CC2.Cl [Example 64, 2-[((2S)-1′-{2-[(2R)-4-[3,5-bis(Trifluoromethyl)benzoyl]-2-(3,4-dichlorophenyl)morpholin-2-yl]ethyl}-2,3-dihydrospiro[indene-1,4′-piperidin]-2-yl)oxy]-N-(3-hydroxypropyl)-N-methylacetamide hydrochloride]	87%
Cl.Cl.O=C(CN1CCOCC1)O[C@H]1Cc2ccccc2C12CCN(CC[C@@]1(c3ccc(Cl)c(Cl)c3)CN(C(=O)c3cc(C(F)(F)F)cc(C(F)(F)F)c3)CCO1)CC2 [Example 6, 1-(2-{(2R)-2-(3,4-Dichlorophenyl)-4-[3,5-bis(trifluoromethyl)benzoyl]morpholin-2-yl}ethyl)spiro((2S)-2-{[(morpholin-1-yl)acetyl]oxy})indane-1,4′-piperidine dihydrochloride]	97%
Cl.Cl.O=C(CO[C@H]1Cc2ccccc2C12CCN(CC[C@@]1(c3ccc(Cl)c(Cl)c3)CN(C(=O)c3cc(C(F)(F)F)cc(C(F)(F)F)c3)CCO1)CC2)N(CCO)CCO [Example 31, 1-(2-{(2R)-2-(3,4-Dichlorophenyl)-4-[3,5-bis(trifluoromethyl)benzoyl]morpholin-2-yl}ethyl)spiro((2S)-2-{2-[bis(2-hydroxyethyl)amino]-2-oxoethoxy})indane-1,4′-piperidine dihydrochloride]	82%
CN(CCCCO)C(=O)CO[C@H]1Cc2ccccc2C12CCN(CC[C@@]1(c3ccc(Cl)c(Cl)c3)CN(C(=O)c3cc(C(F)(F)F)cc(C(F)(F)F)c3)CCO1)CC2.Cl [Example 58, 2-[((2S)-1′-{2-[(2R)-4-[3,5-bis(Trifluoromethyl)benzoyl]-2-(3,4-dichlorophenyl)morpholin-2-yl]ethyl}-2,3-dihydrospiro[indene-1,4′-piperidin]-2-yl)oxy]-N-(4-hydroxybutyl)-N-methylacetamide hydrochloride]	90%
